The values that follow come from patent US20060041123A1, “Antibacterial agents” (priority 2002, published 2006).

A value given as a limit tells only on which side of the number the result lay.

The first experiment can be described thus: Antimicrobial activity assay: whole-cell MIC by broth microdilution (NCCLS M7-A6).
Details: not given
It is filed as cell-based. How it is done: Whole-cell antimicrobial activity was determined by broth microdilution using the National Committee for Clinical Laboratory Standards (NCCLS) recommended procedure, Document M7-A6, “Methods for Dilution Susceptibility Tests for Bacteria that Grow Aerobically”. The compounds were tested in serial two-fold dilutions ranging from 0.016 to 16 mcg/mL. Compounds were evaluated against a panel of Gram-positive organisms, including Staphylococcus aureus WCUH29, Streptococcus pneumoniae 1629, Streptococcus pyogenes CN 10, and Enterococcus faecalis 2. In addition, compounds were evaluated against a panel of Gram-negative strains including Haemophilus influenzae NEMC1, E. coli 7623, and Moraxella catarrhalis Ravasio. The minimum inhibitory concentration (MIC) was determined as the lowest concentration of compound that inhibited visible growth. A mirror reader was used to assist in determining the MIC endpoint.
Compounds of the present invention have MIC's ≦20 μg/ml versus all the organisms named above.
Background: In broth dilution the organism is exposed to a series of concentrations in liquid medium.
In the case of `COc1ccc2ncc(Cl)c(C(O)CN3CCC(NCc4ccc5c(n4)NC(=O)CO5)CC3)c2n1.Cl.Cl` (racemic) [Example 1, 6-({1-[(Racemic)-2-(3-Chloro-6-methoxy-[1,5]naphthyridin-4-yl)-2hydroxy-ethyl]-piperidin-4-ylamino}-methyl)-4H-pyrido[3,2-b][1,4]oxazin-3-one Dihydrochloride], the MIC was ≤ 2 mg/L. On the same count and under the same terms, then `COc1ccc2ncc(F)c(CCN3CCC(NCc4ccc5nsnc5c4)CC3)c2c1.Cl.Cl` [Example 79, N-(2,1,3-benzothiadiazol-5-ylmethyl)-1-{2-[3-fluoro-6-(methoxy)-4-quinolinyl]ethyl}-4-piperidinamine dihydrochloride], with ≤ 2 mg/L; and `COc1ccc2ncc(F)c(CCN3CCC(NCc4ccc5c(n4)NCCS5)CC3)c2c1.Cl.Cl` [Example 81, N-(3,4-dihydro-2H-pyrido[3,2-b][1,4]thiazin-6-ylmethyl)-1-{2-[3-fluoro-6-(methoxy)-4-quinolinyl]ethyl}-4-piperidinamine dihydrochloride], with ≤ 2 mg/L.

The experiment is the same for the next values; noted with them: versus all the organisms named above (S. aureus WCUH29, S. pneumoniae 1629, S. pyogenes CN 10, E. faecalis 2, H. influenzae NEMC1, E. coli 7623, M. catarrhalis Ravasio); read-out: MIC.
Turning to `COc1ccc2ncc(Cl)c(CCN3CC[C@H](NCc4ccc5c(n4)NC(=O)CO5)[C@H](O)C3)c2c1.Cl.Cl` (single isomer, unassigned; enantiomer 1) [Example 5, 6-({(cis)-1-[2-(3-Chloro-6-methoxy-quinolin-4-yl)-ethyl]-3-hydroxy-piperidin-4-ylamino}-methyl)-4H-pyrido[3,2-b][1,4]oxazin-3-one Dihydrochloride Enantiomer 1], the MIC is ≤ 2 mg/L. As to `COc1ccc2ncc(F)c(CCN3CC[C@@H](NCc4ccc5c(n4)NC(=O)CO5)[C@H](O)C3)c2c1.Cl.Cl` (relative stereo) [Example 133, trans-6-{[(1-{2-[3-fluoro-6-(methoxy)-4-quinolinyl]ethyl}-3-hydroxy-4-piperidinyl)amino]methyl}-2H-pyrido[3,2-b][1,4]oxazin-3(4H)-one dihydrochloride], the MIC is ≤ 2 mg/L.

For the compound `COc1ccc2ncc(Cl)c(C(O)CN3CCC(NCc4cc5c(cn4)OCCO5)CC3)c2n1.Cl.Cl` (single isomer, unassigned; enantiomer 1) [Example 35, {1-[2-(3-Chloro-6-methoxy-[1,5]naphthyridin-4-yl)-2-hydroxyethyl]-piperidin-4-yl}-(2,3-dihydro-[1,4]dioxino[2,3-c]pyridin-7-ylmethyl)-amine Dihydrochloride Enantiomer 1], the MIC is ≤ 2 mg/L. Still for that read-out and setting: for `COc1ccc2ncc(F)c(CCN3CCC(NC(=O)c4ccc5c(n4)NC(=O)CO5)CC3)c2c1.Cl` [Example 94, N-(1-{2-[3-fluoro-6-(methoxy)-4-quinolinyl]ethyl}-4-piperidinyl)-3-oxo-3,4-dihydro-2H-pyrido[3,2-b][1,4]oxazine-6-carboxamide hydrochloride] the value was ≤ 2 mg/L; for `COc1ccc2ncc(F)c(CCN3CCC(NCc4ccc5c(n4)NC(=O)CS5)CC3)c2c1.Cl.Cl` [Example 31, 6-({1-[2-(3-Fluoro-6-methoxyquinolin-4-yl)ethyl]piperidin-4-ylamino}methyl)-4H-pyrido[3,2-b][1,4]thiazin-3-one dihydrochloride], ≤ 2 mg/L. The same measure, in the same setting: then `Cl.Cl.O=C1CSc2ccc(CNC3CCN(CCc4c(F)cnc5ccc(F)cc45)CC3)nc2N1` [Example 106, 6-[({1-[2-(3,6-difluoro-4-quinolinyl)ethyl]-4-piperidinyl}amino)methyl]-2H-pyrido[3,2-b][1,4]thiazin-3(4H)-one dihydrochloride], with ≤ 2 mg/L.

In the case of `Cl.Cl.O=C1CSc2ccc(CNC3CCN(CCc4c(Cl)cnc5ccc(Cl)cc45)CC3)nc2N1` [Example 27, 6-({1-[2-(3,6-Dichloro-quinolin-4-yl)-ethyl]-piperidin-4-ylamino}-methyl)-4H-pyrido[3,2-b][1,4]thiazin-3-one Dihydrochloride], the MIC is ≤ 2 mg/L. On the same count and under the same terms, for `COc1ccc2ncc(Cl)c(CCN3CC[C@H](NCc4ccc5c(n4)NC(=O)CO5)[C@H](O)C3)c2n1.Cl.Cl` (single isomer, unassigned; enantiomer 2) [Example 10, 6-({(cis)-1-[2-(3-Chloro-6-methoxy-[1,5]naphthyridin-4-yl)-ethyl]-3-hydroxy-piperidin-4-ylamino}-methyl)-4H-pyrido[3,2-b][1,4]oxazin-3-one Dihydrochloride Enantiomer 2] the value was ≤ 2 mg/L. On to `COc1ccc2ncc(F)c(CCN3CCC(CO)(NC(=O)c4ccc5c(n4)NC(=O)CS5)CC3)c2n1.Cl` [Example 93, N-[1-{2-[3-fluoro-6-(methoxy)-1,5-naphthyridin-4-yl]ethyl}-4-(hydroxymethyl)-4-piperidinyl]-3-oxo-3,4-dihydro-2H-pyrido[3,2-b][1,4]thiazine-6-carboxamide hydrochloride], for which the MIC was ≤ 2 mg/L. Still for that read-out and setting: for `COc1cc(F)c2ncc(Cl)c(CCN3CCC(NCc4cc5c(cn4)OCCO5)CC3)c2c1` [Example 161, 1-{2-[3-chloro-8-fluoro-6-(methoxy)-4-quinolinyl]ethyl}-N-(2,3-dihydro[1,4]dioxino[2,3-c]pyridin-7-ylmethyl)-4-piperidinamine] the value was ≤ 2 mg/L; for `COc1cc(F)c2ncc(F)c(CCN3CC[C@H](NCc4ccc5c(n4)NC(=O)CS5)[C@H](O)C3)c2c1.Cl.Cl` (single isomer, unassigned; enantiomer 1) [Example 73], ≤ 2 mg/L; for `COc1ccc2ncc(F)c(CCN3CC[C@@H](NCc4cc5c(cn4)OCCO5)[C@@H](O)C3)c2n1.Cl.Cl` (single isomer, unassigned; enantiomer 2) [Example 158], ≤ 2 mg/L.

`COc1ccc2ncc(Cl)c(CCN3CC[C@H](NCc4ccc5c(n4)NC(=O)CS5)[C@H](O)C3)c2c1.Cl.Cl` (single isomer, unassigned; enantiomer 1) [Example 7, 6-({(cis)-1-[2-(3-Chloro-6-methoxy-quinolin-4-yl)-ethyl]-3-hydroxy-piperidin-4-ylamino}-methyl)-4H-pyrido[3,2-b][1,4]thiazin-3-one Dihydrochloride Enantiomer 1]: the MIC is ≤ 2 mg/L. The same measure, in the same setting: for `COc1cc(F)c2ncc(F)c(CCN3CCC(NCc4cc5c(cn4)OCCO5)CC3)c2c1.Cl.Cl` [Example 47, 1-{2-[3,8-difluoro-6-(methoxy)-4-quinolinyl]ethyl}-N-(2,3-dihydro[1,4]dioxino[2,3-c]pyridin-7-ylmethyl)-4-piperidinamine dihydrochloride] the value was ≤ 2 mg/L; for `COc1ccc2ncc(F)c(CCN3CCC(NCc4cc5c(cn4)OCCS5)CC3)c2n1.Cl.Cl` [Example 60, N-(2,3-Dihydro[1,4]oxathiino[2,3-c]pyridin-7-ylmethyl)-1-{2-[3-fluoro-6-(methoxy)-1,5-naphthyridin-4-yl]ethyl}-4-piperidinamine dihydrochloride], ≤ 2 mg/L. Regarding `COc1ccc2ncc(Cl)c(CCN3CCC(NCc4cc5c(cn4)OCCO5)CC3)c2n1.Cl.Cl` [Example 3, {1-[2-(3-Chloro-6-methoxy-[1,5]naphthyridin-4-yl)-ethyl]-piperidin-4-yl}-(2,3-dihydro-[1,4]dioxino[2,3-c]pyridin-7-ylmethyl)-amine Dihydrochloride], the MIC is ≤ 2 mg/L. Still for that read-out and setting: for `Cl.Cl.Fc1ccc2ncc(Cl)c(CCN3CCC(NCc4cc5c(cn4)OCCO5)CC3)c2c1` [Example 26, {1-[2-(3-Chloro-6-fluoro-quinolin-4-yl)-ethyl]-piperidin-4-yl}(2,3-dihydro[1,4]dioxino[2,3-c]pyridin-7-ylmethyl)-amine Dihydrochloride] the value was ≤ 2 mg/L; for `COc1ccc2ncc(F)c(CCN3CCC(NCc4cc5c(cn4)OCCO5)CC3)c2c1.Cl.Cl` [Example 32, {1-[2-(3-Fluoro-6-methoxy-quinolin-4-yl)-ethyl]-piperidin-4-yl}-(2,3-dihydro-[1,4]dioxino[2,3-c]pyridin-7-ylmethyl)-amine dihydrochloride], ≤ 2 mg/L. For `COc1ccc2ncc(F)c(CCN3CCC(NCc4cc5c(cn4)SCCN5)CC3)c2n1.Cl.Cl` [Example 54, N-(2,3-Dihydro-1H-pyrido[3,4-b][1,4]thiazin-7-ylmethyl)-1-{2-[3-fluoro-6-(methoxy)-1,5-naphthyridin-4-yl]ethyl}-4-piperidinamine dihydrochloride], the MIC was ≤ 2 mg/L. In the case of `COc1ccc2ncc(Cl)c(CCN3CC[C@@H](NCc4cc5c(cn4)OCCO5)[C@H](O)C3)c2n1` (single isomer, unassigned; enantiomer 1) [Example 154, trans-1-{2-[3-chloro-6-(methoxy)-1,5-naphthyridin-4-yl]ethyl}-4-[(2,3-dihydro[1,4]dioxino[2,3-c]pyridin-7-ylmethyl)amino]-3-piperidinol Enantiomer 1], the MIC was ≤ 2 mg/L. Same read-out and setting: then `COc1ccc2ncc(F)c(CCN3CCC(NCc4ccc5c(c4)OCCO5)CC3)c2n1` [Example 157, N-(2,3-dihydro-1,4-benzodioxin-6-ylmethyl)-1-{2-[3-fluoro-6-(methoxy)-1,5-naphthyridin-4-yl]ethyl}-4-piperidinamine], with ≤ 2 mg/L; and `COc1ccc2ncc(Cl)c(CCN3CC[C@@H](NCc4ccc5c(n4)NC(=O)CS5)[C@H](O)C3)c2n1.Cl.Cl` (single isomer, unassigned; enantiomer 2) [Example 39, (trans)-6-({1-[2-(3-Chloro-6-methoxy-[1,5]naphthyridin-4-yl)-ethyl]-3-hydroxy-piperidin-4-ylamino}-methyl)-4H-pyrido[3,2-b][1,4]-thiazin-3-one Dihydrochloride Enantiomer 2], with ≤ 2 mg/L.
